Experimental data as given in PubChem BioAssay (NCI).
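96-well plates; 48 h exposure; 5 concentrations. Endpoints by linear interpolation between flanking doses. Not reached: highest tested concentration assigned. GI50: concentration for 50% inhibition of growth. TGI is the concentration that stops growth completely.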

Assays:
Assay in all cases: inhibition of tumour cell growth, NCI panel, 48 h
A549 NSCLC = system: A549 NSCLC
CCRF-CEM leukemia = system: CCRF-CEM leukemia
HOP-62 NSCLC = system: HOP-62 NSCLC
K-562 leukemia = system: K-562 leukemia
MALME-3M melanoma = system: MALME-3M melanoma
MOLT-4 leukemia = system: MOLT-4 leukemia
NCI-H522 lung = system: NCI-H522 lung
SF-268 CNS = system: SF-268 CNS
SK-MEL-2 melanoma = system: SK-MEL-2 melanoma
TK-10 renal = system: TK-10 renal

Compound | GI50 (A549 NSCLC) | TGI (A549 NSCLC) | GI50 (CCRF-CEM leukemia) | TGI (CCRF-CEM leukemia) | GI50 (HOP-62 NSCLC) | TGI (HOP-62 NSCLC) | GI50 (K-562 leukemia) | TGI (K-562 leukemia) | GI50 (MALME-3M melanoma) | TGI (MALME-3M melanoma) | GI50 (MOLT-4 leukemia) | TGI (MOLT-4 leukemia) | GI50 (NCI-H522 lung) | TGI (NCI-H522 lung) | GI50 (SF-268 CNS) | TGI (SF-268 CNS) | GI50 (SK-MEL-2 melanoma) | TGI (SK-MEL-2 melanoma) | GI50 (TK-10 renal) | TGI (TK-10 renal)
CS(=O)(=O)Nc1ccc(-c2cc(-c3ccccc3)cc(C(N)=O)c2N)cc1 | 20.2 µM | > 25 µM | 17.8 µM | > 25 µM | > 25 µM | > 25 µM | 15.8 µM | > 25 µM | > 25 µM | > 25 µM | 19.5 µM | > 25 µM | 15300 nM | > 25 µM | > 25000 nM | > 25 µM | > 25000 nM | > 25 µM | > 25 µM | > 25 µM
CCCCCCCCCCCCCC1=NCCN1CCO | 3.52 µM | > 100 µM | 10.5 µM | > 100 µM | 5.62 µM | 12.7 µM | 3.04 µM | > 100 µM | 12.7 µM | 30.5 µM | 4.11 µM | > 100 µM | 2520 nM | 6.13 µM | 2830 nM | 8.12 µM | 2860 nM | 9.01 µM | 4.75 µM | 12.7 µM
C=CC(C1=CC(=O)C(OC)=CC1=O)c1ccccc1 (stereo not drawn) | – | > 62 µM | – | 6.77 µM | – | 32.4 µM | – | 13.2 µM | – | 28.7 µM | – | 5.81 µM | – | 23.8 µM | – | 41.3 µM | – | 30.3 µM | – | 32 µM
Cc1cccc2c1N(C(=O)/C=C\C(=O)O)C(c1c(C)[nH]c3ccccc13)C2 (stereo not drawn) | – | > 100 µM | – | 78.2 µM | – | > 100 µM | – | > 100 µM | – | 48.1 µM | – | > 100 µM | – | 46.3 µM | – | > 10 µM | – | 36 µM | – | > 100 µM
COC1CCN(C(=O)c2cc(Cc3n[nH]c(=O)c4ccccc34)ccc2F)CC1 | 58.9 µM | > 100 µM | 43.9 µM | > 100 µM | 33.4 µM | > 100 µM | > 89.1 µM | > 100 µM | > 100 µM | > 100 µM | 39.3 µM | > 100 µM | 33500 nM | > 100 µM | 58300 nM | > 100 µM | > 47100 nM | > 100 µM | > 100 µM | > 100 µM
O=C1CCC2CC(C(=O)c3ccccc3)CCC2CN1 (stereo not drawn) (tested in a mixture with another compound) | – | > 100 µM | – | > 100 µM | – | > 100 µM | – | > 100 µM | – | > 100 µM | – | > 100 µM | – | > 100 µM | – | > 100 µM | – | > 100 µM | – | –
COc1cc(OC)c(/C=C\c2ccnc3ccccc23)c(OC)c1 | – | 18.6 µM | – | 5.75 µM | – | 18.6 µM | – | 2.24 µM | – | 16.5 µM | – | 11.8 µM | – | 18 µM | – | 22.8 µM | – | 19.4 µM | – | 17.8 µM
CCOC(=O)n1cc(C2=C(c3cn(C)c4ccccc34)COC2=O)c2ccccc21 | 0.166 µM | > 100 µM | 0.218 µM | > 100 µM | 0.159 µM | 20.4 µM | 0.0365 µM | > 32.2 µM | 0.0508 µM | > 100 µM | 0.38 µM | > 48.4 µM | 27.8 nM | 1.02 µM | 1020 nM | 62.9 µM | 500 nM | > 86.1 µM | 10 µM | 31 µM
CCOC(=O)CSC(=O)NCCCl | – | > 100 µM | 7.22 µM | > 100 µM | – | > 100 µM | 29 µM | > 100 µM | – | > 100 µM | > 100 µM | > 100 µM | – | > 100 µM | – | > 100 µM | – | > 100 µM | – | > 100 µM
COC(=O)C(=O)C(C(=O)C(=O)Nc1nc2ccc(C)cc2s1)c1nc2ccc([N+](=O)[O-])cc2[nH]c1=O (stereo not drawn) | – | > 100 µM | – | > 100 µM | – | > 100 µM | – | > 100 µM | – | > 100 µM | – | – | – | > 100 µM | – | > 100 µM | – | > 100 µM | – | > 100 µM
COC(=O)C(CC(C)C)NC(=O)NC12CC3CC(CC(F)(C3)C1)C2 (stereo not drawn) | – | > 100 µM | – | > 100 µM | – | > 100 µM | – | > 100 µM | – | > 100 µM | – | > 100 µM | – | > 100 µM | – | – | – | > 100 µM | – | > 100 µM
O=C(/C(=C\c1ccc([N+](=O)[O-])cc1)S(=O)Cc1ccc(F)cc1)c1ccc(F)cc1 (stereo not drawn) | 2.83 µM | 10.2 µM | 1.48 µM | 6.75 µM | 2.74 µM | 8.28 µM | – | – | 1.64 µM | 3.55 µM | 1.51 µM | 5.06 µM | 1770 nM | 3.31 µM | 2110 nM | 5.34 µM | 2200 nM | 5.47 µM | 2.31 µM | 7 µM
CCN(CC)CCOc1ccccc1/C=C/c1noc2ccccc12 | – | – | – | 81.6 µM | – | 31.3 µM | – | > 100 µM | – | 13.9 µM | – | 76.7 µM | – | 22.2 µM | – | 37 µM | – | 16.7 µM | – | 28.7 µM
N/N=C(\C(=O)Nc1ccc(Cl)cc1Cl)C(c1cnc2ccccc2n1)[N+](=O)[O-] (stereo not drawn) | – | > 100 µM | – | > 100 µM | – | > 100 µM | – | > 100 µM | – | > 100 µM | – | – | – | > 100 µM | – | > 100 µM | – | > 100 µM | – | > 100 µM
O=C1c2ccccc2S(=O)(=O)N1CSC(=S)N1CCCCC1 | > 100 µM | > 100 µM | – | – | > 100 µM | > 100 µM | > 94.6 µM | > 100 µM | > 100 µM | > 100 µM | – | – | 2050 nM | > 100 µM | > 100000 nM | > 100 µM | > 100000 nM | > 100 µM | > 100 µM | > 100 µM
CNC(=O)OCc1c2ccncc2c(C)c2c1[nH]c1ccccc12 | – | 2.58 µM | – | – | – | 5 µM | – | > 100 µM | – | 1.24 µM | – | > 100 µM | – | 0.272 µM | – | 1.65 µM | – | 0.548 µM | – | 0.968 µM
Clc1cccc(Cl)c1C1CSc2ccccc2N=C1c1ccccc1 (stereo not drawn) | 12.2 µM | 28.1 µM | 3.44 µM | 34.8 µM | 20.7 µM | 41 µM | – | – | 10.9 µM | 27.8 µM | 3.86 µM | 37.6 µM | 3520 nM | 14.5 µM | 3070 nM | 11.2 µM | 11200 nM | 24.3 µM | 3.69 µM | 9.27 µM
N#Cc1ccccc1NC(=O)C(=O)c1c(O)c2ccccc2oc1=O | – | > 100 µM | – | > 100 µM | – | > 100 µM | – | > 100 µM | – | > 100 µM | – | – | – | > 100 µM | – | > 100 µM | – | > 100 µM | – | > 100 µM
